Details of data set [1]: method as in ChemSpider. The conditions noted are these: ref ChemSpider; cited from earlier work.
The next data set has as its target MvitPBP2 (Maruca vitrata, UniProt A0A1D6YJA8). In words: Fluorescence competitive binding assay with 1-NPN probe, recombinant MvitPBP2. As for the experimental part: (§1) Fluorescence binding activity was determined according to the method of Sun et al.[33]. Emission fluorescence spectra were recorded on a Hitachi F-4500 at 25 °C in a right angle configuration, with a 1 cm light path quartz cuvette and 5 nm slits for both excitation and emission. The protein was dissolved in 20 mM Tris-HCl buffer (pH 7.4) and ligands were added as 1 mM methanol solutions. To measure the affinity of the fluorescent ligand 1-NPN to recombinant target proteins, a 2 μM protein solution in 20 mM Tris-HCl (pH 7.4) was titrated with aliquots of […] ligand in methanol to final concentrations of 2–16 μM. After each PBP or ligand was added into the reaction buffer, the mixture solution was incubated for 2 min at room temperature. The probe was excited at 337 nm and emission spectra were recorded between 380 and 450 nm. The affinities of the other ligands were measured in competitive binding assays. A solution of the protein and 1-NPN at a concentration of 2 μM was titrated with 1 mM methanol solutions of each competitor over concentration ranges of 2–24 μM, depending on the ligand (the solubilities are (EPA estimates): E10E12-16:Ald, 0.5 uM; E10-16:Ald, 0.3 uM; E10E12-16:OH, 0.17 uM; and E10-16:OH, 0.97 uM in ChemSpider). The dissociation constant for 1-NPN and the stoichiometry of binding were obtained by processing the data using Prism software. Dissociation constants of the competitors were calculated from the corresponding IC50 values (concentrations of ligands halving the initial fluorescence value of 1-NPN), using the equation: Ki = [IC50]/1 + [1-NPN]/K1-NPN, where [1-NPN] is the free concentration of 1-NPN and K1-NPN is the dissociation constant of the coplex protein/1-NPN.

The next data set deals with MvitPBP1 (Maruca vitrata, UniProt A0A0K0K7G1). In words: Fluorescence competitive binding assay with 1-NPN probe, recombinant MvitPBP1. On the procedure: as §1
The subject of data set [2] is MvitPBP3 (Maruca vitrata). In words: Fluorescence competitive binding assay with 1-NPN probe, recombinant MvitPBP3. As for the experimental part: as §1, with “A solution of the protein and 1-NPN at a concentration of 2 μM was titrated with 1 mM methanol solutions of each competitor over concentration ranges of 2–24 μM, depending on the ligand (the solubilities are (EPA estimates): E10E12-16:Ald, 0.5 uM; E10-16:Ald, 0.3 uM; E10E12-16:OH, 0.17 uM; and E10-16:OH, 0.97 uM in ChemSpider). The dissociation constant for 1-NPN and the stoichiometry of binding were obtained by processing the data using Prism software.” left out

The test system of the next data set is MvitGOBP2. More on the design: method as in PMID 26517714. To be noted: read-out: Ligand concentration at which fluorescence intensity of the MvitGOBP2/1-NPN complex decreased to approximately 50%; cited from earlier work.
Where [3] appears, read: MvitPBP2; 2 μM protein and 1-NPN, 20 mM Tris-HCl pH 7.4; read-out: IC50 (ligand concentration displacing 50% of the fluorescence intensity of the MvitPBPs/1-NPN complex).
Where [4] appears, read: MvitPBP2; calculated from IC50; read-out: Ki (dissociation constant).
Setting [5] is: MvitPBP1, 2 μM protein and 1-NPN, 20 mM Tris-HCl pH 7.4, read-out: IC50 (ligand concentration displacing 50% of the fluorescence intensity of the MvitPBPs/1-NPN complex).
[6] abbreviates: MvitPBP1, calculated from IC50, read-out: Ki (dissociation constant).

≈ marks a conversion by molar mass, not a printed value. Like-named read-outs stand apart in the source and are kept apart here.

Sequence of MvitPBP2 (A0A1D6YJA8 entry or part of it): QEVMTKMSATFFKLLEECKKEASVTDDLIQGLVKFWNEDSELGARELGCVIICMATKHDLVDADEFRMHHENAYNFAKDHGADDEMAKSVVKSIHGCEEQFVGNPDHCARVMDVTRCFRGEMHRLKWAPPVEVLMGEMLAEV
Sequence of MvitPBP1 (A0A0K0K7G1 entry or part of it): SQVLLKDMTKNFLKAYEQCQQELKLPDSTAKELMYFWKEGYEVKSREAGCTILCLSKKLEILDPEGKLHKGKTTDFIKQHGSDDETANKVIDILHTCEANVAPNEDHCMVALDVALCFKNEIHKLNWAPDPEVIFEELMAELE
Sequence of MvitPBP3 (Maruca vitrata) (A0A1D6YJA8 entry or part of it): as the sequence (A0A1D6YJA8 entry or part of it) above

On to `CCC/C=C/C=C/CCCCCCCCC=O` [E10E12-16: Ald, (E,E)-10,12-Hexadecadienal], for which the “Solubility (EPA estimates)” value in data set [1] is 0.5 µM (≈ 0.118 µg/mL). Besides, the IC50 at MvitPBP2 (setting [3]) came out at 5.89 µM; on MvitPBP1 (setting [5]) it was 5.68 µM. The Ki on MvitPBP2 (setting [4]) was 5.09 µM; on MvitPBP1 (setting [6]) it was 4.97 µM.

As for `Oc1cccc2[nH]ccc12` [1H-indol-4-ol], on MvitPBP1 (setting [5]), the IC50 stood at 22.5 µM. Besides, the Ki at MvitPBP1 (setting [6]) is 19.7 µM.

`CCC/C=C/C=C/CCCCCCCCCO` [E10E12-16: OH, (E,E)-10,12-Hexadecadien-1-ol]: the “Solubility (EPA estimates)” value in data set [1] was 0.17 µM (≈ 0.0405 µg/mL). For the same compound, the IC50 amounted to 5.91 µM at MvitPBP2 (setting [3]) and 8.84 µM at MvitPBP1 (setting [5]). Moreover, the values for the Ki on MvitPBP2 (setting [4]) and at MvitPBP1 (setting [6]) were 5.11 µM and 7.73 µM, respectively.

In the case of `c1ccc(Nc2cccc3ccccc23)cc1` [1-NPN, N-phenyl-1-naphthylamine, reference compound], the Kd was 11.9 µM on MvitPBP2 (read-out: Dissociation constant of the MvitPBP2/1-NPN complex; calculated by Scatchard plots) and 13 µM at MvitPBP1.

`CC(=O)c1ccc(C(C)=O)cc1` [1,4-diacetyl benzene]: on MvitPBP1, the IC50 was 19.6 µM and the inhibition constant (Ki) is 17.2 µM.

As for `CCCCC/C=C/CCCCCCCCCO` [E10-16: OH, (E)-10-Hexadecen-1-ol], the “Solubility (EPA estimates)” value in data set [1] was 0.97 µM (≈ 0.233 µg/mL). The IC50 at MvitPBP2 (setting [3]) was found to be 6.82 µM; at MvitPBP1 (setting [5]) it was 7.64 µM. The Ki is 5.9 µM on MvitPBP2 (setting [4]) and 6.69 µM on MvitPBP1 (setting [6]).

Turning to `CC(C=O)Cc1ccccc1` (stereo not shown) [2-methyl-3-phenylpropanal], the Ki on MvitPBP2 (setting [4]) is 18.1 µM. For the same compound, the IC50 on MvitPBP2 (read-out: IC50 (ligand concentration displacing 50% of the fluorescence intensity of the MvitPBPs/1-NPN complex); MvitPBP2; 2 μM protein and 1-NPN, 20 mM Tris-HCl pH 7.4) was 21 µM; in the data set on MvitGOBP2, 3.81 µM. The “Ligand binding capacity (in words)” value in data set [2] is “bonded strongly”.

Regarding `CCCCC/C=C/CCCCCCCCC=O` [E10-16: Ald, (E)-10-Hexadecenal], the “Solubility (EPA estimates)” value in data set [1] is 0.3 µM (≈ 0.0715 µg/mL). The IC50 on MvitPBP2 (setting [3]) worked out at 5.53 µM; at MvitPBP1 (setting [5]) it was 7.36 µM. Moreover, the figures for the Ki at MvitPBP2 (setting [4]) and on MvitPBP1 (setting [6]) were 4.78 µM and 6.44 µM, respectively.

Consider `CCCCCCCCOC(=O)CCC` [Butanoic acid octyl ester], for which, in the data set with MvitGOBP2, the IC50 is 8.5 µM.

Broadly, the Ki is the equilibrium dissociation constant of an inhibitor or competing ligand from its target.
